Experimental data reported in patent publication US20030130210A1, “Method for treating a patient with neoplasia by treatment with an anthracycline antibiotic” (priority 1998, published 2003).

Key:
HT-29 cells [1] = assay: Apoptosis by DNA fragmentation assay in HT-29 cells; type: cell-based, human; conditions: apoptosis inducing activity
HT-29 cells [2] = assay: Cyclic nucleotide (cGMP, cAMP) levels in HT-29 cells by radioimmunoassay; type: cell-based, human; conditions: HT-29 cells treated for 30 minutes
Protocol: The amount of PDE activity can be determined by assaying for the amount of cyclic GMP in the extract of treated cells using a radioimmunoassay (RIA). In this procedure, a neoplastic cell line is incubated with a test compound. […]
It has been observed that a compound which is useful in the practice of this invention (i.e., one that selectively induces apoptosis in neoplastic cells, but not substantially in normal cells) follows a time course consistent with cGMP-specific PDE inhibition. […] The intracellular targets of these drug actions are being studied further, but current data support the concept that the initial rise in cGMP content and the subsequent fall in cAMP content precede apoptosis in neoplastic cells exposed to test compounds useful in this invention. To determine the cyclic AMP content in cell extracts, radioimmunoassay techniques similar to those described above for cGMP are used.

HT-29 cells [3] = assay: Apoptosis and necrosis by morphology (acridine orange / ethidium bromide) in HT-29 cells; type: cell-based, human; conditions: 120 μM
Protocol: Treatment of cells with test compounds involves either pre- or post-confluent cultures and treatment for two to seven days at various concentrations of the compound in question. Apoptotic cells are measured by combining both the attached and “floating” compartments of the cultures. The protocol for treating tumor cell cultures with sulindac and related compounds to obtain a significant amount of apoptosis has been described in the literature. (See, Piazza, G. A., et al., Cancer Research, 55:3110-16, 1995, which is incorporated herein by reference). The novel features include collecting both floating and attached cells, identification of the optimal treatment times and dose range for observing apoptosis, and identification of optimal cell culture conditions. […]
Reference compounds and test compounds were analyzed for their cGMP-specific PDE inhibitory activity in accordance with the protocols for the assay, supra. […] Apoptotic and necrotic cell death was determined as previously described (Duke and Cohen, In: Current Protocols in Immunology, 3.17.1-3.17.16, New York, John Wiley and Sons, 1992). […]
The apoptosis inducing activity for a series of phosphodiesterase inhibitors was determined. […] Apoptosis and necrosis were determined morphologically after acridine orange and ethidium bromide labeling in accordance with the assay described, supra.

HT-29 cells [4] = assay: Tumor cell growth inhibition in HT-29 cells; type: cell-based, human; conditions: 120 μM, viable cell count after trypan blue staining
[5] = Side effects of exisulind on administration; type: in vivo; conditions: doses higher than the recommended therapeutic levels; reversible
Description: This effect is reversible, and liver enzymes return to normal levels when the administered dose of exisulind returns to the traditionally recommended level or when treatment is discontinued. The most serious side effects of anthracycline antibiotics, on the other hand, is their myocardial toxicity and their myelosuppressive activity.

CCCCCC[C@@H]([C@@H](C)O)n1cnc2c(N)ncnc21 (racemic) [EHNA]
Fold induction at 100 μM (HT-29 cells [1]): <2.0 fold

CSc1ccc(/C=C2/C(C)=C(CC(=O)O)c3cc(F)ccc32)cc1 [Sulindac sulfide]
effect on levels of cAMP (HT-29 cells [2]): unaffected | apoptosis, time course (HT-29 cells [3]): increase in apoptosis | growth inhibition, time course (HT-29 cells [4]): capable of inhibiting tumor cell growth

CCN(CC)CCSC12CC(=O)OC1(C)/C(=C/c1ccc(S(C)(=O)=O)cc1)c1ccc(F)cc12 (racemic) [A, rac-threo-(E)-1-(N,N′-diethylaminoethanethio)-1-(butan-1′,4′-olido)-[3′,4′:1,2]-6-fluoro-2-methyl-3-(p-methylsulfonylbenzylidene)-indan]
Fold induction at 100 μM (HT-29 cells [1]): <2.0 fold

COc1ccc(C2CNC(=O)C2)cc1OC1CCCC1 (stereo not shown) [Rolipram]
effect on levels of cAMP (HT-29 cells [2]): increased cAMP levels

CC1=C(CC(=O)O)c2cc(F)ccc2/C1=C\c1ccc(S(C)(=O)=O)cc1 [Exisulind, (Z)-5-fluoro-2-methyl-1-[[4-(methylsulfonyl)phenyl]methylene]indene-3-yl acetic acid]
side effects at doses higher than recommended [5]: elevated levels of liver enzymes
